Results on 7 molecules are retold here after patent US20250382631A1, “PROTAC-CID SYSTEMS FOR USE IN MULTIPLEX GENE REGULATION” (William Marsh Rice University, priority 2022, published 2025).

Like-named read-outs stand apart in the source and are kept apart here. Bounds are passed on as bounds.

For one experiment, the target named is GAL4-FKBP12^F36V (human). Nature of the experiment: cell-based or functional assay.
The next experiment deals with PYL-VPR (UniProt Q8VZS8). Put plainly: cell-based or functional assay.
A further experiment addresses GAL4-FKBP12 (UniProt P04386). Put plainly: cell-based or functional assay.
Experiment [1] has as its system EYFP and BFP expression in HEK293T cells. Nature of the experiment: Dual PROTAC-based inducible gene cassettes (EYFP and BFP), microscopy. The settings on record: GAL4-FKBP12^F36V + VHL-VPR driving EYFP; TetR-BRD9BD + CRBN-VPR driving BFP; 1 μM, FIG. 2B. In kind it is cell-based, human. As for the experimental part: (§1) Transfection and microscopy. HEK293T cells (American Type Culture Collection, no. CRL-3216) were cultured with high-glucose Dulbecco's modified Eagle's medium (DMEM) (Thermo Fisher Scientific no. 10569044) with 10% fetal bovine serum (FBS) (Thermo Fisher Scientific no. 10437028) and 1×penicillin-streptomycin (Thermo Fisher Scientific no. 15140122) at 37° C. with 5% CO2. Except for the data in FIGS. 3C, 3E, and 3H, cells were plated into 96 well plate (Corning no. 3598) and transfected by Polyethyleneimine Max (PEI Max) (Polysciences no. 24765-1). 1.5 μL PEI Max (1 mg/mL, pH=7.1) and 100 μl DMEM were mixed with plasmids to be slowly dropped into the cell medium after 30 mins of incubation. Medium was changed 12 hours post-transfection. The inductive small molecules, including Rapamycin (STEM CELL technologies no. 73362), dTAG-13 (TOCRIS no. 6605/5), dTAG^V-1 (TOCRIS no. 6744-5), dBRD9 (TOCRIS no. 6606/5), dTRIM24 (TOCRIS no. 6607/5), MZ1 (TOCRIS no. 6154/5), AT1 (TOCRIS no. 6356/5), TL13-12 (TOCRIS no. 6744/5), TL13-112 (TOCRIS no. 6745/5), dTAG-7 (TOCRIS no. 69125), ZXH3-26 (TOCRIS no. 6713/5) and ABA (GoldBio no. A-050-100), dissolved in Dimethyl sulfoxide (DMSO) (Sigma, no. D8418) were added. For the microscopy observation, the images were taken by Microscopy EVOS (Life Technologies) and processed by ImageJ (Schneider et al., 2012). If not otherwise noted, 60 ng of each plasmid were used for each sample.
The inventors next tested the feasibility of dual PROTAC-based inducible gene cassettes (FIG. 15). In the first cassette, GAL4 was fused with FKBP12^F36V, and VHL was ligated with VPR to drive EYFP expression in response to dTAG^V-1. In the second cassette, TetR was fused with BRD9BD, and CRBN was connected with VPR to drive blue fluorescence protein (BFP) expression in the presence of dBRD9. […] As biological computation relies on the protein or DNA to execute Boolean logic gate operation in living organisms for cell discrimination and disease diagnosis (3, 11, 42), the inventors next explored the possibility of PROTAC-CID enabled logic gate biological computation. By placing EYFP under control of the TRE (Tetracycline response element) and pUAS-1 promoter, the inventors observed strong EYFP expression by using one or two PROTACs, achieving clear logic OR gate responses (FIGS. 2C and 16B). To develop a more sophisticated logic AND gate, the inventors took advantage of two orthogonal site-specific DNA recombinases (Cre and Dre) for biological computation (43). […] In this gene circuit, only in the presence of both dTAG-13 and dBRD9 inducers, Dre and Cre can be expressed to remove their respective “STOP” signals, resulting in the eventual GFP expression as a clear logic AND readout (FIGS. 2D and 16C).

In experiment [2] the test system is Cre-mediated GFP expression in HEK293T cells. Put plainly: Inducible Cre site-specific DNA recombination, LoxP-STOP-LoxP-GFP reporter. The format is cell-based, human. Conditions: 100 nM dTAG-13 or 1 μM dBRD9, 2 days, FIGS. 3A and 17. The protocol: (§2) Fluorescence assay using flow cytometry analysis. Cells were treated with 0.05% Trpsin EDTA (Thermo Fisher Scientific no. 25300054) or TrypLE (Thermo Fisher Scientific no. 12605028) after transfection and centrifuged at 3000 g for 5 min. Supernatant was removed and the cell pellet was resuspended with 200 μL phosphate buffered saline (PBS) without calcium and magnesium (Thermo Fisher Scientific no. 10010023). Cells were transferred into 12×75 mm flow tubes (Global Scientific no. 110410). Cells were analyzed by MA900 flow cytometry (SONY). 405 nm laser (FL6 filter) was used for testing the BFP channel. 488 nm (FL1 filter) was used for testing the EYFP and GFP channel. Automated alignment using Automatic Setup Beads kit (SONY no. LE-B3001) is performed before running samples. In FIGS. 3A, 3B, and 17, experiments were performed under 2% FSC, 17% BSC, 24% FL1. In FIG. 18, experiments were performed under 2% FSC, 17% BSC, 27% FL1. All the other experiments were performed under 2% FSC, 17% BSC, 24% FL1 and 27% FL6. Flow cytometry data was processed and analyzed by FlowJo 10. Events were first gated with forward scatter-Area (FSC-A) and side scatter-Area (SSC-A) to select viable cells and remove the debris and dead cells. Cells were further gated with FSC-A and FSC-Height (FSC-H) for selecting single cells. The mean intensity of the reporter fluorescent protein (BFP and EYFP) in viable and single cell populations were calculated by FlowJo 10 as the mean of FL6-A and FL1-A. When calculating the fold change of relative fluorescence units (RFU), the relative fluorescence units of EYFP was calculated by dividing the mean of fluorescence intensity of EYFP with the mean of BFP fluorescence intensity for normalization as the following formula: […]
Transfection and microscopy. […]

The subject of experiment [3] is pUAS-1-driven EYFP expression in HEK293T cells transfected with GAL4- and VPR-fused PROTAC target protein / E3 ubiquitin ligase. Put plainly: PROTAC-CID inducible EYFP gene activation, flow cytometry. In kind it is cell-based, human. Conditions: FIG. 13A. As for the experimental part:
as §2
Next, the mean of the normalized relative fluorescence units of induced group were divided by the value of control group for calculating the fold change as the following formula: […]
as §1
Step-by-step fluorescence protein activation assay protocol. Reagents: • 1. PEI Max (Polysciences no. 24765-1) • 2. DMEM, high glucose, GlutaMAX™ Supplement, pyruvate (Thermo Fisher Scientific no. 10569044) • 3. Penicillin-Streptomycin (10,000 U/mL) (Thermo Fisher Scientific no. 15140122) • 4. Fetal Bovine Serum 500ML (FBS) (Thermo Fisher Scientific no. 10437028) • 5. TrypLE™ Express Enzyme (1×), phenol red (Thermo Fisher Scientific no. 12605068) • 6. PBS pH=7.4 (Thermo Fisher Scientific no. 10010023) • 7. Sony sorting chip […] for MA900 (SONY no. LE-C3210) • 8. Automatic Setup Beads kit (SONY no. LE-B3001) • 9. […]

For another experiment, the target named is wild-type FKBP12 (Homo sapiens, UniProt P62942). Conditions: refs (32, 36); cited from earlier work.
The next experiment deals with BRD4^BD2-VPR (human). Put plainly: cell-based or functional assay.
The target of the next experiment is TRIM24^BD-VPR (human). Put plainly: cell-based or functional assay.
Setting [4] is: Table 4 nonlinear regression of EYFP activation.

Sequence of PYL-VPR (Q8VZS8 33-209): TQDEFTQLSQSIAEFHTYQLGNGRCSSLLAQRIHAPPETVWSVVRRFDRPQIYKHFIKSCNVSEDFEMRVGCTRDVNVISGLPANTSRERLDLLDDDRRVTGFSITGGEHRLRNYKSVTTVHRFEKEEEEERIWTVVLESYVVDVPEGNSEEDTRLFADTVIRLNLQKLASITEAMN
Sequence of wild-type FKBP12 (P62942 whole entry, species assumed): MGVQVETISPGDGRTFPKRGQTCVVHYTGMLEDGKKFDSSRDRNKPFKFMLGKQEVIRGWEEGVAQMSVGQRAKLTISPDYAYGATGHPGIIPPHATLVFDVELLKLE

In the experiment with GAL4-FKBP12^F36V (human), CRBN-VPR showed an EC50 of the inducer dTAG-13 for EYFP gene activation (dose-response, FIG. 13A) of 53 nM and a fold increase in EYFP expression with dTAG-13 greater than 100 fold.
For the molecule “GAL4-ABI (from UniProt P04386 1-147; P49597 126-423)”, the EC50 of the inducer ABA for EYFP gene activation (dose-response, FIG. 13A) with PYL-VPR came out at 763 nM.
In the experiment with GAL4-FKBP12, FRB-VPR (from UniProt P42345 2021-2113) showed an EC50 of the inducer Rapamycin for EYFP gene activation (dose-response, FIG. 13A) of 6.32 nM and a fold EYFP gene activation with rapamycin of 355 fold.
VHL-VPR (from UniProt P40337 1-213) gave an EC50 of the inducer dTAG^V-1 for EYFP gene activation (dose-response, FIG. 13A) with GAL4-FKBP12^F36V (human) of 228 nM.
As for `COc1cc(-c2cn(C)c(=O)c3cnccc23)cc(OC)c1CN(C)CC(=O)NCCOCCOCCNc1cccc2c1C(=O)N(C1CCC(=O)NC1=O)C2=O` (stereo not shown) [dBRD9], in experiment [1], the “EYFP / BFP expression from dual inducible cassettes” value is “expression only in the presence of its corresponding inducer”. Moreover, in experiment [2], the “GFP signal, two-layer genetic circuit driving Cre” value is “strong GFP signal”.
One may read the EC50 as the concentration needed to bring the measured effect to its halfway point. Take `CC[C@H](C(=O)N1CCCC[C@H]1C(=O)O[C@H](CCc1ccc(OC)c(OC)c1)c1ccccc1OCC(=O)NCCCCCCC(=O)N[C@H](C(=O)N1C[C@H](O)C[C@H]1C(=O)N[C@@H](C)c1ccc(-c2scnc2C)cc1)C(C)(C)C)c1cc(OC)c(OC)c(OC)c1` [dTAG^V-1]: in experiment [3] (setting [4]), the “Bottom (best-fit value)” value was determined as 0.9420, the “Span (best-fit value)” value is listed as 55.73 and the “Top (best-fit value)” value came to 56.67. For the same molecule, in experiment [3] (Table 4 nonlinear regression), the “Hillslope (best-fit value)” value was 1.937 and the “logEC50 (best-fit value)” value was determined as 2.358. Besides, the EC50 in experiment [3] (Table 4 nonlinear regression, Prism 9 [Agonist] vs. response variable slope (four parameters), no unit in table (the source gives nM), read-out: EC50 (best-fit value)) is 228 nM. Also, the EC50 in experiment [3] (dose-response, read-out: EC50 for gene activation) came to 228 nM. Also, the “EYFP / BFP expression from dual inducible cassettes” value in experiment [1] is recorded as “expression only in the presence of its corresponding inducer”. Further, the “degradation of wild-type FKBP12” value at wild-type FKBP12 is on record as “do not degrade wild-type FKBP12”.
GAL4-VHL fusion protein displayed an EC50 of the inducer MZ1 for EYFP gene activation (dose-response, FIG. 13A) with BRD4^BD2-VPR (human) of 32.4 nM. In addition, in the experiment with TRIM24^BD-VPR (human), the EC50 of the inducer dTRIM24 for EYFP gene activation (dose-response, FIG. 13A) was 6350 nM.
